Measurements published in patent publication US10710951B2, “Pharmaceutical composition containing verbenone derivative for treating or preventing neurodegenerative disease” (KOREA UNIVERSITY RESEARCH AND BUSINESS FOUNDATION, priority 2012, dated 2020).

What was measured:
cortical neurons [1] = test: NMDA-induced excitotoxicity, LDH release; format: cell-based, SD rats; parameters: dose or concentration left out as unconfirmed; details: cultured cortical neuronal cells; sample 30 min before NMDA; lower than MK-801; FIG. 2
Experimental: (§1) Cortical neurons (5×10^5 cells/ml) were isolated from fetal SD rats (16-17 days). Specifically, brain cortex was cut, and cells were isolated from the tissue by repeated trituration using a Pasteur pipette in buffer (Hanks' Balanced Salt Solution, HBSS). The cell suspension (1.8×10^3 cells/mm^2) was dispensed on a plate pretreated with poly-D-lysine ([…])/laminin ([…]). The cells were placed in 10% FBS-containing NBM medium, and incubated in a […]/5% CO2 atmosphere at 37° C. After 15-16 days of the incubation, the experiment was performed.
After incubation on the plate for 15-18 days, the cortical neurons were exposed to NMDA ([…]) in a solution (Mg^2+-free Earle's balanced salt solution (EBSS); containing 1.8 mM CaCl2 and 10 mM glycine) for 10 minutes. After exposure, the cells were washed with MgSO4-containing EBSS solution, and incubated in 25 mmol/L glucose-containing DMEM medium in a 5% CO2 incubator at 37° C. 30 Minutes before treatment with NMDA, the cells were treated with each sample […].
(§2) In order to measure cell injury or cell death, the amount of LDH released into the medium was measured using a cell viability measurement kit (Sigma-Aldrich, St. Louis, Mo.). Cell viability was expressed as the percentage of LDH relative to the total cellular LDH level measured in sister cultures lysed by freezing-thawing after the experiment.

cortical neurons [2] = test: Oxygen-glucose deprivation (OGD)/reoxygenation neuronal injury, LDH release; format: cell-based; details: rat cortical neurons, FIG. 1
Experimental: as §1
In order to induce hypoxic-ischemic symptoms in vitro, the incubated cells were placed in an anoxic chamber (partial oxygen pressure <2 mmHg). The cells were incubated glucose-free DMEM while being bubbled with an anaerobic gas mixture (95% N2 and 5% CO2) for 30 minutes to remove residual oxygen, and were incubated at 37° C. for 90 minutes for oxygen deprivation. After 90 minutes, the exposed solution was replaced with 25 mmol/L glucose-containing DMEM medium to stop the OGD reaction, and the cells were restored to normal oxygen conditions. Control cells not exposed to OGD were incubated in glucose (25 mmol/L)-containing DMEM medium provided with an aerobic gas mixture (95% air and 5% CO2). The cells were treated with each sample 30 minutes before, and during the entire period of OGD/re-oxygenation.
as §2

[3] = DPPH assay (ability to scavenge nitrogen radicals); parameters: DPPH assay % inhibition: concentration or dose not given beside the values
Experimental: The samples were mixed with DPPH (23.6 μg/ml, in ethanol), and incubated in dark at 37° C. for 30 minutes. The DPPH absorbance reduced by each sample was measured at 517 nm. Vitamin C (Sigma-Aldrich, St. Louis, Mo.) was used as a control, and the DPPH inhibition value (%) was calculated using the following equation: Scavenging activity (%)=[Absmax(Vit.C)−Abssample]/[Absmax(Vit.C)−Absmin(Vit.C)]×100. Equation 1
The antioxidant activities of the verbenone derivatives of the present invention were measured by the following two different chemical reactions: (1) a single electron transfer-based assay that is a […] [DPPH] assay that measures a decrease in DPPH acting as a free radical generator and a termination probe; and (2) a hydrogen atom transfer assay that is an oxygen radical absorbance capacity [[…]] assay that measures the competitive reaction kinetics of a peroxyl radical generator (AAPH; 2,2′-azobis-(2-methylpropionamide)-dihydrochloride) and each sample acting as an antioxidant for oxidizable fluorescent probe (fluorescein).

COc1cc(C=CC2=CC(=O)[C@H]3C[C@@H]2C3(C)C)cc(O)c1O [Compound 3f, (1S,5R)-4-(3,4-dihydroxy-5-methoxystyryl)-6,6-dimethylbicyclo[3.1.1]hept-3-en-2-one]
NMDA-induced neuronal injury (cortical neurons [1]): significantly reduced NMDA-induced neuronal injury
neuronal injury induced by OGD (LDH release) (cortical neurons [2]; OGD/reoxygenation, comparable to MK801): significantly reduced neuronal injury
cytotoxicity (cortical neurons [2]): showed no cytotoxicity
DPPH scavenging activity (in words) ([3]; compared to vitamin C at the same concentration): stronger scavenging activity compared to vitamin C
DPPH assay % inhibition ([3]; relative to vitamin C (Equation 1)): 83.64 ± 6.19%
